Results published in patent US20170239351A1, “Therapeutic Combinations of a BTK Inhibitor, a PI3K Inhibitor, a JAK-2 Inhibitor, a PD-1 Inhibitor, and/or a PD-L1 Inhibitor” (Acerta Pharma B.V., priority 2014, published 2017).

Columns and labels:
CLL = assay: Clinical study of Formula (XVIII) in CLL; assay type: in vivo
ID8 ovarian cancer = assay: ID8 syngeneic orthotropic ovarian cancer model; assay type: in vivo, mice
KrasL2 NSCLC = KrasL2 NSCLC model; details: in vivo
T helper 17 (Th17) cells = assay: Effect on T helper 17 (Th17) cells; assay type: cell-based
Brain penetration study = details: in vivo
pancreatic cancer = assay: KPC pancreatic cancer model (spontaneously appearing tumors); assay type: in vivo, KPC mice; details: 15 mg/kg BID oral
Experimental: The KPC mouse model recapitulates many of the molecular, histopathologic, and clinical features of human disease (Westphalen and Olive, Cancer J. 2012, 18, 502-510). Combination therapy with gemcitabine was also evaluated in this model. Mice were enrolled after identification of spontaneously appearing tumors in the pancreas that were ≧100 mm^3 (as assessed by high-resolution ultrasonography).

[1] = test system: human platelet-mediated thrombosis; design: species or system VWF HA1 mice (human platelets); details: in vivo
Experimental: […]. Injury to the vessel wall of arterioles ([…] diameter) was performed using a pulsed nitrogen dye laser (440 nm, Photonic Instruments) applied through a 20× water-immersion Olympus objective (LUMPlanF1, 0.5 numerical aperature (NA)) of a Zeiss Axiotech vario microscope. Human platelet and wall interactions were visualized by fluorescence microscopy using a system equipped with a Yokogawa CSU-22 spinning disk confocal scanner, iXON EM camera, and 488 nm and 561 nm laser lines to detect BCECF-labeled and rhodamine-labeled platelets, respectively (Revolution XD, Andor Technology). The extent of thrombus formation was assessed for 2 minutes after injury and the area (μm^2) of coverage determined (Image IQ, Andor Technology).
. The BTK inhibitor-treated human platelets were fluorescently labeled and infused continuously through a catheter inserted into the femoral artery. Their behavior in response to laser-induced vascular injury was monitored in real time using two-channel confocal intravital microscopy (Furie and Furie, J. Clin. Invest. 2005, 115(12), 2255-62). Upon induction of arteriole injury untreated platelets rapidly formed thrombi with an average thrombus size of […] (mean±s.e.m.), as shown in FIG. 124 and FIG. 125. […]. […]. […]

human platelets = assay: GPVI (convulxin-induced) platelet aggregation; assay type: cell-based
Experimental: GPVI platelet aggregation was measured for Formula (XVIII) and Formula (XX-A) (ibrutinib). Blood was obtained from untreated humans, and platelets were purified from […] by centrifugation. Cells were resuspended to a final concentration of 350,000/μL in buffer containing 145 mmol/L NaCl, 10 mmol/L HEPES, 0.5 mmol/L Na2HPO4, 5 mmol/L KCl, 2 mmol/L MgCl2, 1 mmol/L CaCl2, and 0.1% glucose, at pH 7.4. Stock solutions of Convulxin (CVX) GPVI were prepared on the day of experimentation and added to platelet suspensions 5 minutes (37° C., 1200 rpm) before the induction of aggregation. Aggregation was assessed with a Chronolog Lumi-Aggregometer (model 540 VS; Chronolog, Havertown, Pa.) and permitted to proceed for 6 minutes after the addition of agonist. The results are reported as maximum percent change in light transmittance from baseline with platelet buffer used as a reference.
In FIG. 129, the results of CVX-induced (250 ng/mL) human platelet aggregation results before and 15 minutes after administration of the BTK inhibitors to 6 healthy individuals are shown.

primary CLL cells = assay: Rituximab ADCC assay (51Cr release), NK cells against autologous tumor cells; assay type: cell-based, human; details: 1 μM; primary CLL samples
CYP3A4 = CYP3A4 (Homo sapiens, UniProt P08684); assay: In vitro CYP metabolism and CYP interaction studies; assay type: in vitro ADME
[2] = In vitro metabolism in hepatocytes with 14C-labeled drug; assay type: in vitro ADME, mouse, rat, dog, rabbit, monkey, and human
NSCLC lung tumors = assay: Genetic tumor model of NSCLC (KrasLA2); assay type: in vivo, mice; details: 15 mg/kg
Text: The model is designed to have sporadic expression in single cells of G12D mutant Kras off its own promoter triggered by spontaneous intrachromosomal recombination. Johnson, et al. Nature 2001, 410, 1111-16. While the mutant Kras protein is expressed in a few cells in all tissues, tumor development is seen only in the lung at high penetrance.

NK cells = assay: Whole blood NK cell degranulation/ADCC assay with obinutuzumab-opsonised MEC-1 cells; assay type: cell-based, human; details: CD56+/CD107a+ NK cells; n=3 experiments
CD8^+ T cells = assay: Cytotoxic T cell (CTL) assay; assay type: cell-based; details: 500 nM
Experimental: Without being bound by any theory, CD8^+ T cells have two primary effector functions: (1) produce large amounts of IFN-γ (which activates macrophages), and (2) cytolytic activity. […] The targets were B lymphoblasts from lipopolysaccharide (LPS) treated cultures. The assay was performed by incubating different ratios of effectors:targets for 4 hours.

[3] = Functional observation battery (GLP safety pharmacology); details: doses through 300 mg/kg
[4] = Cardiovascular function study in awake telemeterized animals; details: single doses through 30 mg/kg

CYP3A4, sequence (P08684 whole entry): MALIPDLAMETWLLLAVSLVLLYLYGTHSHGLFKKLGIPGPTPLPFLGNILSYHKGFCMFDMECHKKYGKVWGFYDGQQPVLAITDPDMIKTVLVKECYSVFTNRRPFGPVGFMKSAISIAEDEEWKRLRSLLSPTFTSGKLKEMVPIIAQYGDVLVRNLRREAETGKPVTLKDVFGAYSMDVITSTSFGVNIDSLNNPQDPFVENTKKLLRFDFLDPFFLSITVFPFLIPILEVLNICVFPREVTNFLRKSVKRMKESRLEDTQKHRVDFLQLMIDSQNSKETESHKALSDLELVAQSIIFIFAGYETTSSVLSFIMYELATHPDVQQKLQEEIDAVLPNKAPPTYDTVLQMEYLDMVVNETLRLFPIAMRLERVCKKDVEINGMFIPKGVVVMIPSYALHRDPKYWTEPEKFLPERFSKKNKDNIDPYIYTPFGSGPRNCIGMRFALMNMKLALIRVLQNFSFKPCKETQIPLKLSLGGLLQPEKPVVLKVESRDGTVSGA

Which apoptosis (CLL; CLL patients treated) does the source give for `CC#CC(=O)N1CCC[C@H]1c1nc(-c2ccc(C(=O)Nc3ccccn3)cc2)c2c(N)nccn12` [Formula (XVIII), (S)-4-(8-amino-3-(1-(but-2-ynoyl)pyrrolidin-2-yl)imidazo[1,5-a]pyrazin-1-yl)-N-(pyridin-2-yl)benzamide] here?
Its apoptosis is “increased apoptosis”.

What about the “sum of the product of greatest diameters (SPD)” value (CLL; CLL patients, compared with ibrutinib) of the same compound?
Its value is “decreases more rapidly”.

What about the “absolute lymphocyte count (ALC)” value (CLL; CLL patients, relative to ibrutinib data of Byrd, et al.) of the same compound?
Its value is “much smaller relative increase and much faster decrease”.

What about the CCL2 levels (CLL; patients treated) of the same compound?
Its CCL2 levels is “decrease in CCL2 levels”.

What about the CXCL12 levels (CLL; patients treated) of the same compound?
Its CXCL12 levels is “decrease in CXCL12 levels”.

What about the “CD8+ T cells” value (ID8 ovarian cancer; mouse, in vivo) of the same compound?
The value was “increase in CD8^+ T cells”.

What about the “immunosuppressive tumor associated Tregs” value (ID8 ovarian cancer; mouse, in vivo) of the same compound?
The value was “significant reduction in immunosuppressive tumor associated Tregs”.

What about the “ID8 ovarian cancer growth” value (ID8 ovarian cancer; syngeneic murine model, versus vehicle) of the same compound?
Its value is “impairs ID8 ovarian cancer growth”.

And the “B regulatory cells (Bregs)” value (ID8 ovarian cancer; tumor-bearing mice)?
Its value is “significant reduction in B regulatory cells (Bregs)”.

What about the “total B cells” value (ID8 ovarian cancer; tumor-bearing mice) of the same compound?
Its value is “significant reduction in total B cells”.

And the “immunosuppressive tumor associated lymphocytes” value (ID8 ovarian cancer; tumor-bearing mice, versus vehicle)?
Its value is “significant reduction in immunosuppressive tumor associated lymphocytes”.

And the “immunosuppressive tumor associated MDSCs” value (KrasL2 NSCLC)?
The value was “significant reduction in immunosuppressive tumor associated MDSCs”.

What about the “immunosuppressive tumor associated TAMs” value (KrasL2 NSCLC) of the same compound?
Its value is “significant reduction in immunosuppressive tumor associated TAMs”.

And the “immunosuppressive tumor associated Tregs” value (KrasL2 NSCLC)?
The value was “significant reduction in immunosuppressive tumor associated Tregs”.

And the “effect on Th17 cells” value (T helper 17 (Th17) cells)?
The value was “no adverse effect on T helper 17 (Th17) cells”.

And the “brain penetration (blood-brain barrier)” value (Brain penetration study)?
Its value is “crosses the blood-brain barrier”.

What about the “CD8 cells in tumor tissues” value (pancreatic cancer) of the same compound?
Its value is “significant increase”.

And the “immunosuppressive TAMs, MDSCs and Tregs in tumor tissues” value (pancreatic cancer)?
Its value is “significantly reduced”.

And the “survival at day 14” value (pancreatic cancer)?
The value was 6/6.

And the “effect on thrombus formation” value [1]?
The value was “does not interfere with thrombus formation”.

What about the GPVI platelet aggregation (human platelets) of the same compound?
Its GPVI platelet aggregation is “does not”.

And the “effect on rituximab-mediated ADCC” value (primary CLL cells)?
The value was “not inhibited”.

And the “CYP responsible for loss of parent drug” value (CYP3A4)?
Its value is “metabolized by CYP3A4”.

And the “drug-drug interaction potential via CYP enzymes” value (CYP3A4)?
The value was “very unlikely to cause clinical drug-drug interactions”.

And the metabolites found [2]?
The metabolites found was “two mono-oxidized metabolites and a glutathione conjugate”.

What about the unique human metabolite [2] of the same compound?
The unique human metabolite was “No unique human metabolite was identified”.

And the number of tumors (NSCLC lung tumors)?
Its number of tumors is “fewer overall tumors”.

And the “tumor volumes versus vehicle” value (NSCLC lung tumors)?
The value was “significant decrease in tumor volumes”.

And the “reduction of obinutuzumab-stimulated NK cell degranulation” value (NK cells)?
Its value is “minimal effect”.

What about the “CD8^+ T cell function as % cytotoxicity” value (CD8^+ T cells) of the same compound?
The value was “no effect on CD8^+ T cell function”.

And the “neurobehavioral effects or body temperature” value [3]?
Its value is “no adverse effects”.

What about the “body temperature, cardiovascular, or ECG (including QT interval) parameters” value [4] of the same compound?
Its value is “no meaningful changes”.
